# Results taken from US12618095B2, “Medium for Bacillus cereus group detection” (SHIMADZU DIAGNOSTICS CORPORATION, priority 2020, dated 2026).
# How the values were obtained:
# Assay in all cases: Test Example 10: agar medium with aztreonam or ceftazidime
# B. cereus = conditions: 22 hours
# E. amnigenus = conditions: 22 hours; for Number of colonies: ATCC33072
# E. coli = type: cell-based; conditions: 22 hours; for Number of colonies: ATCC8739
# B. thuringiensis = conditions: NBRC101235, 22 hours
smiles,measurement,setting,value
C[C@H]1[C@H](NC(=O)/C(=N\OC(C)(C)C(=O)O)c2csc(N)n2)C(=O)N1S(=O)(=O)O [aztreonam],Number of colonies,"B. cereus; ATCC11778, Aztreonam 0.05 mg, 10^1 cfu/mL",1
same,Number of colonies,"B. cereus; ATCC11778, Aztreonam 0.05 mg, 10^2 cfu/mL",13
same,Number of colonies,"B. cereus; ATCC11778, Aztreonam 0.05 mg, 10^3 cfu/mL",+
same,Number of colonies,"B. cereus; ATCC11778, Aztreonam 0.05 mg, 10^4 cfu/mL",+
same,Number of colonies,"B. cereus; ATCC11778, Aztreonam 0.05 mg, 10^5 cfu/mL",+
same,Number of colonies,"B. cereus; ATCC11778, Aztreonam 0.5 mg, 10^1 cfu/mL",1
same,Number of colonies,"B. cereus; ATCC11778, Aztreonam 0.5 mg, 10^2 cfu/mL",12
same,Number of colonies,"B. cereus; ATCC11778, Aztreonam 0.5 mg, 10^3 cfu/mL",+
same,Number of colonies,"B. cereus; ATCC11778, Aztreonam 0.5 mg, 10^4 cfu/mL",+
same,Number of colonies,"B. cereus; ATCC11778, Aztreonam 0.5 mg, 10^5 cfu/mL",+
same,Number of colonies,"B. cereus; ATCC11778, Aztreonam 5 mg, 10^1 cfu/mL",2
same,Number of colonies,"B. cereus; ATCC11778, Aztreonam 5 mg, 10^2 cfu/mL",17
same,Number of colonies,"B. cereus; ATCC11778, Aztreonam 5 mg, 10^3 cfu/mL",+
same,Number of colonies,"B. cereus; ATCC11778, Aztreonam 5 mg, 10^4 cfu/mL",+
same,Number of colonies,"B. cereus; ATCC11778, Aztreonam 5 mg, 10^5 cfu/mL",+
same,Number of colonies,"B. cereus; ATCC19637, Aztreonam 0.05 mg, 10^1 cfu/mL",3
same,Number of colonies,"B. cereus; ATCC19637, Aztreonam 0.05 mg, 10^2 cfu/mL",2
same,Number of colonies,"B. cereus; ATCC19637, Aztreonam 0.05 mg, 10^3 cfu/mL",+
same,Number of colonies,"B. cereus; ATCC19637, Aztreonam 0.05 mg, 10^4 cfu/mL",+
same,Number of colonies,"B. cereus; ATCC19637, Aztreonam 0.05 mg, 10^5 cfu/mL",+
same,Number of colonies,"B. cereus; ATCC19637, Aztreonam 0.5 mg, 10^1 cfu/mL",1
same,Number of colonies,"B. cereus; ATCC19637, Aztreonam 0.5 mg, 10^2 cfu/mL",10
same,Number of colonies,"B. cereus; ATCC19637, Aztreonam 0.5 mg, 10^3 cfu/mL",+
same,Number of colonies,"B. cereus; ATCC19637, Aztreonam 0.5 mg, 10^4 cfu/mL",+
same,Number of colonies,"B. cereus; ATCC19637, Aztreonam 0.5 mg, 10^5 cfu/mL",+
same,Number of colonies,"B. cereus; ATCC19637, Aztreonam 5 mg, 10^1 cfu/mL",1
same,Number of colonies,"B. cereus; ATCC19637, Aztreonam 5 mg, 10^2 cfu/mL",5
same,Number of colonies,"B. cereus; ATCC19637, Aztreonam 5 mg, 10^3 cfu/mL",+
same,Number of colonies,"B. cereus; ATCC19637, Aztreonam 5 mg, 10^4 cfu/mL",+
same,Number of colonies,"B. cereus; ATCC19637, Aztreonam 5 mg, 10^5 cfu/mL",+
same,Number of colonies,"E. amnigenus; Aztreonam 0.05 mg, 10^1 cfu/mL",−
same,Number of colonies,"E. amnigenus; Aztreonam 0.05 mg, 10^2 cfu/mL",−
same,Number of colonies,"E. amnigenus; Aztreonam 0.05 mg, 10^3 cfu/mL",−
same,Number of colonies,"E. amnigenus; Aztreonam 0.05 mg, 10^4 cfu/mL",−
same,Number of colonies,"E. amnigenus; Aztreonam 0.05 mg, 10^5 cfu/mL",2
same,Number of colonies,"E. amnigenus; Aztreonam 0.5 mg, 10^1 cfu/mL",−
same,Number of colonies,"E. amnigenus; Aztreonam 0.5 mg, 10^2 cfu/mL",−
same,Number of colonies,"E. amnigenus; Aztreonam 0.5 mg, 10^3 cfu/mL",−
same,Number of colonies,"E. amnigenus; Aztreonam 0.5 mg, 10^4 cfu/mL",−
same,Number of colonies,"E. amnigenus; Aztreonam 0.5 mg, 10^5 cfu/mL",−
same,Number of colonies,"E. amnigenus; Aztreonam 5 mg, 10^1 cfu/mL",−
same,Number of colonies,"E. amnigenus; Aztreonam 5 mg, 10^2 cfu/mL",−
same,Number of colonies,"E. amnigenus; Aztreonam 5 mg, 10^3 cfu/mL",−
same,Number of colonies,"E. amnigenus; Aztreonam 5 mg, 10^4 cfu/mL",−
same,Number of colonies,"E. amnigenus; Aztreonam 5 mg, 10^5 cfu/mL",−
same,formation of a white colony,"E. amnigenus; added to TSA-BC, 30° C.",suppressed
same,Number of colonies,"E. coli; Aztreonam 0.05 mg, 10^1 cfu/mL",−
same,Number of colonies,"E. coli; Aztreonam 0.05 mg, 10^2 cfu/mL",−
same,Number of colonies,"E. coli; Aztreonam 0.05 mg, 10^3 cfu/mL",−
same,Number of colonies,"E. coli; Aztreonam 0.05 mg, 10^4 cfu/mL",−
same,Number of colonies,"E. coli; Aztreonam 0.05 mg, 10^5 cfu/mL",−
same,Number of colonies,"E. coli; Aztreonam 0.5 mg, 10^1 cfu/mL",−
same,Number of colonies,"E. coli; Aztreonam 0.5 mg, 10^2 cfu/mL",−
same,Number of colonies,"E. coli; Aztreonam 0.5 mg, 10^3 cfu/mL",−
same,Number of colonies,"E. coli; Aztreonam 0.5 mg, 10^4 cfu/mL",−
same,Number of colonies,"E. coli; Aztreonam 0.5 mg, 10^5 cfu/mL",−
same,Number of colonies,"E. coli; Aztreonam 5 mg, 10^1 cfu/mL",−
same,Number of colonies,"E. coli; Aztreonam 5 mg, 10^2 cfu/mL",−
same,Number of colonies,"E. coli; Aztreonam 5 mg, 10^3 cfu/mL",−
same,Number of colonies,"E. coli; Aztreonam 5 mg, 10^4 cfu/mL",−
same,Number of colonies,"E. coli; Aztreonam 5 mg, 10^5 cfu/mL",−
same,formation of a white colony,"E. coli; added to TSA-BC, 30° C.",suppressed
same,Number of colonies,"B. thuringiensis; Aztreonam 0.05 mg, 10^1 cfu/mL",3
same,Number of colonies,"B. thuringiensis; Aztreonam 0.05 mg, 10^2 cfu/mL",16
same,Number of colonies,"B. thuringiensis; Aztreonam 0.05 mg, 10^3 cfu/mL",+
same,Number of colonies,"B. thuringiensis; Aztreonam 0.05 mg, 10^4 cfu/mL",+
same,Number of colonies,"B. thuringiensis; Aztreonam 0.05 mg, 10^5 cfu/mL",+
same,Number of colonies,"B. thuringiensis; Aztreonam 0.5 mg, 10^1 cfu/mL",1
same,Number of colonies,"B. thuringiensis; Aztreonam 0.5 mg, 10^2 cfu/mL",13
same,Number of colonies,"B. thuringiensis; Aztreonam 0.5 mg, 10^3 cfu/mL",+
same,Number of colonies,"B. thuringiensis; Aztreonam 0.5 mg, 10^4 cfu/mL",+
same,Number of colonies,"B. thuringiensis; Aztreonam 0.5 mg, 10^5 cfu/mL",+
same,Number of colonies,"B. thuringiensis; Aztreonam 5 mg, 10^1 cfu/mL",2
same,Number of colonies,"B. thuringiensis; Aztreonam 5 mg, 10^2 cfu/mL",16
same,Number of colonies,"B. thuringiensis; Aztreonam 5 mg, 10^3 cfu/mL",+
same,Number of colonies,"B. thuringiensis; Aztreonam 5 mg, 10^4 cfu/mL",+
same,Number of colonies,"B. thuringiensis; Aztreonam 5 mg, 10^5 cfu/mL",+
